Source: ChEMBL document CHEMBL3044631, “Synthesis of 2-[4,5-dimethyl-1-(phenylamino)-1H-imidazol-2-ylthio]-N-(thiazole-2-yl)acetamide derivatives and their anticancer activities” (2013)

Legend:
Type in all cases: functional
[1] = tested on: SF-268; assay: Anticancer activity against Homo sapiens (human) SF268 cells assessed as cell growth promotion at 10 uM after 48 hr by SRB assay
[2] = tested on: UO-31; assay: Anticancer activity against Homo sapiens (human) UO31 cells assessed as cell growth promotion at 10 uM after 48 hr by SRB assay
[3] = tested on: M14; assay: Anticancer activity against Homo sapiens (human) M14 cells assessed as cell growth promotion at 10 uM after 48 hr by SRB assay
[4] = tested on: OVCAR-5; assay: Anticancer activity against Homo sapiens (human) OVCAR5 cells assessed as cell growth promotion at 10 uM after 48 hr by SRB assay
[5] = tested on: HOP-92; assay: Anticancer activity against Homo sapiens (human) HOP92 cells assessed as cell growth promotion at 10 uM after 48 hr by SRB assay
[6] = tested on: OVCAR-8; assay: Anticancer activity against Homo sapiens (human) OVCAR8 cells assessed as cell growth promotion at 10 uM after 48 hr by SRB assay
[7] = tested on: UACC-257; assay: Anticancer activity against Homo sapiens (human) UACC257 cells assessed as cell growth promotion at 10 uM after 48 hr by SRB assay
[8] = tested on: CAKI-1; assay: Anticancer activity against Homo sapiens (human) CAKI-1 cells assessed as cell growth promotion at 10 uM after 48 hr by SRB assay
[9] = tested on: KM12; assay: Anticancer activity against Homo sapiens (human) KM12 cells assessed as cell growth promotion at 10 uM after 48 hr by SRB assay
[10] = tested on: MDA-MB-231; assay: Anticancer activity against Homo sapiens (human) MDA-MB-231/ATCC cells assessed as cell growth promotion at 10 uM after 48 hr by SRB assay
[11] = tested on: U-251; assay: Anticancer activity against Homo sapiens (human) U251 cells assessed as cell growth promotion at 10 uM after 48 hr by SRB assay
[12] = tested on: T47D; assay: Anticancer activity against Homo sapiens (human) T47D cells assessed as cell growth promotion at 10 uM after 48 hr by SRB assay
[13] = tested on: HOP-62; assay: Anticancer activity against Homo sapiens (human) HOP62 cells assessed as cell growth promotion at 10 uM after 48 hr by SRB assay
[14] = tested on: NCI-H460; assay: Anticancer activity against Homo sapiens (human) NCI-H460 cells assessed as cell growth promotion at 10 uM after 48 hr by SRB assay
[15] = tested on: HCC 2998; assay: Anticancer activity against Homo sapiens (human) HCC2998 cells assessed as cell growth promotion at 10 uM after 48 hr by SRB assay
[16] = tested on: K562; assay: Anticancer activity against Homo sapiens (human) K562 cells assessed as cell growth promotion at 10 uM after 48 hr by SRB assay
[17] = tested on: DU-145; assay: Anticancer activity against Homo sapiens (human) DU145 cells assessed as cell growth promotion at 10 uM after 48 hr by SRB assay
[18] = tested on: SW-620; assay: Anticancer activity against Homo sapiens (human) SW620 cells assessed as cell growth promotion at 10 uM after 48 hr by SRB assay
[19] = tested on: BT-549; assay: Anticancer activity against Homo sapiens (human) BT549 cells assessed as cell growth promotion at 10 uM after 48 hr by SRB assay
[20] = tested on: MDA-MB-468; assay: Anticancer activity against Homo sapiens (human) MDA-MB-468 cells assessed as cell growth promotion at 10 uM after 48 hr by SRB assay
[21] = tested on: SK-MEL-5; assay: Anticancer activity against Homo sapiens (human) SK-MEL-5 cells assessed as cell growth promotion at 10 uM after 48 hr by SRB assay
[22] = tested on: MCF7; assay: Anticancer activity against Homo sapiens (human) MCF7 cells assessed as cell growth promotion at 10 uM after 48 hr by SRB assay
[23] = tested on: OVCAR-3; assay: Anticancer activity against Homo sapiens (human) OVCAR3 cells assessed as cell growth promotion at 10 uM after 48 hr by SRB assay
[24] = tested on: SK-MEL-28; assay: Anticancer activity against Homo sapiens (human) SK-MEL-28 cells assessed as cell growth promotion at 10 uM after 48 hr by SRB assay
[25] = tested on: Malme-3M; assay: Anticancer activity against Homo sapiens (human) MALME-3M cells assessed as cell growth promotion at 10 uM after 48 hr by SRB assay
[26] = tested on: SK-MEL-2; assay: Anticancer activity against Homo sapiens (human) SK-MEL-2 cells assessed as cell growth promotion at 10 uM after 48 hr by SRB assay
[27] = tested on: A498; assay: Anticancer activity against Homo sapiens (human) A498 cells assessed as cell growth promotion at 10 uM after 48 hr by SRB assay
[28] = tested on: SNB-19; assay: Anticancer activity against Homo sapiens (human) SNB19 cells assessed as cell growth promotion at 10 uM after 48 hr by SRB assay
[29] = tested on: OVCAR-4; assay: Anticancer activity against Homo sapiens (human) OVCAR4 cells assessed as cell growth promotion at 10 uM after 48 hr by SRB assay
[30] = tested on: SF-295; assay: Anticancer activity against Homo sapiens (human) SF295 cells assessed as cell growth promotion at 10 uM after 48 hr by SRB assay
[31] = tested on: HT-29; assay: Anticancer activity against Homo sapiens (human) HT-29 cells assessed as cell growth promotion at 10 uM after 48 hr by SRB assay
[32] = tested on: LOX IMVI; assay: Anticancer activity against Homo sapiens (human) LOXIMVI cells assessed as cell growth promotion at 10 uM after 48 hr by SRB assay
[33] = tested on: 786-0; assay: Anticancer activity against Homo sapiens (human) 786-0 cells assessed as cell growth promotion at 10 uM after 48 hr by SRB assay
[34] = tested on: EKVX; assay: Anticancer activity against Homo sapiens (human) EKVX cells assessed as cell growth promotion at 10 uM after 48 hr by SRB assay
[35] = tested on: SNB-75; assay: Anticancer activity against Homo sapiens (human) SNB75 cells assessed as cell growth promotion at 10 uM after 48 hr by SRB assay
[36] = tested on: A549; assay: Anticancer activity against Homo sapiens (human) A549/ATCC cells assessed as cell growth promotion at 10 uM after 48 hr by SRB assay
[37] = tested on: SN12C; assay: Anticancer activity against Homo sapiens (human) SN12C cells assessed as cell growth promotion at 10 uM after 48 hr by SRB assay
[38] = tested on: MDA-MB-435; assay: Anticancer activity against Homo sapiens (human) MDA-MB-435 cells assessed as cell growth promotion at 10 uM after 48 hr by SRB assay
[39] = tested on: NCI-H23; assay: Anticancer activity against Homo sapiens (human) NCI-H23 cells assessed as cell growth promotion at 10 uM after 48 hr by SRB assay
[40] = tested on: HL-60(TB); assay: Anticancer activity against Homo sapiens (human) HL-60(TB) cells assessed as cell growth promotion at 10 uM after 48 hr by SRB assay

Row | Structure (SMILES) | Activity [1] | Activity [2] | Activity [3] | Activity [4] | Activity [6] | Activity [7] | Activity [8] | Activity [9] | Activity [10] | Activity [11] | Activity [12] | Activity [13] | Activity [14] | Activity [15] | Activity [16] | Activity [17] | Activity [18] | Activity [19] | Activity [20] | Activity [21] | also measured
1 | COc1ccc(Nn2c(SCC(=O)Nc3nc(-c4ccc(Cl)cc4)cs3)nc(C)c2C)cc1 | 66.13% | 39.41% | 62.46% | 111.33% | 43.88% | 48.91% | 34.44% | 43.08% | 79.71% | 43.51% | 39.43% | 100.44% | 39.32% | 54.24% | 26.88% | 79.62% | 75.2% | 53.32% | 26.17% | -21.47% | Activity [5]: 38.65%; Activity [22]: 16.16%; Activity [23]: 60.75%; Activity [24]: 82.63%; Activity [25]: 99.15%; Activity [26]: 90.48%; Activity [27]: 69.49%; Activity [28]: 79.24%; Activity [29]: 30.81%; Activity [30]: 43.89%; Activity [31]: 30.12%; Activity [32]: 38.91%; Activity [33]: 59.54%; Activity [34]: 41.94%; Activity [35]: 56.63%; Activity [36]: 44%; Activity [37]: 67.16%; Activity [38]: 50.36%; Activity [39]: 31.88%
2 | Cc1nc(SCC(=O)Nc2nccs2)n(Nc2ccc(Cl)cc2)c1C | 112.74% | 86.43% | 97.83% | 87.36% | 104.9% | 107.66% | 101.14% | 113.75% | 98.69% | 108.53% | 91.74% | 88.3% | 106% | 115.62% | 112.86% | 122.72% | 123.41% | 111.12% | 105.66% | 84.95% | Activity [5]: 96.74%; Activity [22]: 104.33%; Activity [23]: 117.12%; Activity [24]: 111.02%; Activity [25]: 140.83%; Activity [40]: 95.84%; Activity [26]: 116.11%; Activity [27]: 101.93%; Activity [28]: 121.25%; Activity [29]: 102.19%; Activity [30]: 97.66%; Activity [31]: 108.32%; Activity [32]: 101.8%; Activity [33]: 111.66%; Activity [34]: 123.2%; Activity [35]: 92.05%; Activity [36]: 101.96%; Activity [37]: 96.39%; Activity [38]: 110.71%; Activity [39]: 109.41%
3 | Cc1nc(SCC(=O)Nc2nc(-c3ccc(Cl)cc3)cs2)n(Nc2ccccc2)c1C | 56.4% | 32.86% | 47.55% | 65.75% | 31.91% | 46.91% | 36.74% | 57.14% | 48.83% | 36.61% | 26.64% | 48.49% | 52.96% | 69.51% | 27.56% | 65.41% | 73.1% | 54% | 21.05% | 10.19% | Activity [22]: 27.14%; Activity [23]: 61.29%; Activity [24]: 54.29%; Activity [25]: 99.3%; Activity [40]: 42.07%; Activity [26]: 84.99%; Activity [27]: 74.31%; Activity [28]: 59.64%; Activity [29]: 35.93%; Activity [30]: 31.02%; Activity [31]: 25.29%; Activity [32]: 26.08%; Activity [33]: 54.27%; Activity [34]: 34.55%; Activity [35]: 39.12%; Activity [36]: 28.85%; Activity [37]: 39.25%; Activity [38]: 41%; Activity [39]: 12.2%
